Test results reported in PMC8615997, “The Pseudo-Symmetric N-benzyl Hydroxyethylamine Core in a New Series of Heteroarylcarboxyamide HIV-1 Pr Inhibitors: Synthesis, Molecular Modeling and Biological Evaluation” (Biomolecules, 2021).

These molecules were tested against T1, recombinant wild-type HIV-1 PR (Human immunodeficiency virus type 1 group M subtype B, UniProt P04585) (assay: In vitro fluorometric HIV-1 protease inhibition assay (fluorogenic substrate Abz-Thr-Ile-Nle-Phe(p-NO2)-Gln-Arg-NH2, pH 5.5)). Conditions: not given.
T1 construct: recombinant wild-type HIV-1 PR from Bachem; purchased Bachem
Assay type: biochemical
Experimental: IC50 values were determined at pH 5.5 using recombinant wild-type HIV-1 PR from Bachem and the fluorogenic substrate Abz-Thr-Ile-Nle-Phe(p-NO2)-Gln-Arg-NH2 (Abz-NF⁄-6; Bachem AG, Bubendorf, CH). […] The assay was performed as follows: Dilution Buffer: 100 mM MES buffer, pH 5.5, containing 400 mM NaCl, 1 mM EDTA, 1 mM DTT and 1 mg/mL BSA. Solution A: 10 μL of a substrate stock solution in DMSO (10 mg/ml, 10.6 mM) were diluted in 1.99 ml of dilution buffer to a final concentration of […]. Solution B: 10 μL of a protease stock solution (0.4 mg/mL) in 10 mM sodium phosphate buffer, pH 6.5, containing 1 mM EDTA, 10% glycerol, 0.05% mercaptoethanol, 50 mM NaCl, were diluted 100 times with the dilution buffer, pH 5.5, to a final concentration of 0.004 mg/ml.
Assay: 114 μL of solution A, 11 μL of solution B and 75 μL of the dilution buffer were pre-incubated in a cuvette at 25 °C, and the fluorescence was recorded at 325 nm excitation and 420 nm emission for 10 min. A total of 2 μL of the inhibitor in DMSO was then added, and the fluorescence was recorded for a further 10 min. […] IC50 was obtained by measuring the relative residual enzyme activity (ratio of the increase of fluorescence velocities before and after the addition of inhibitor) and by fitting the residual activity vs. inhibitor concentration semilog plots to a tetraparametric logistic function (Sigma plot 2001, SPSS Inc., Chicago, IL, USA). All the measures were triplicated.
IC50 values were obtained on recombinant wild-type HIV protease by measuring the initial rates of hydrolysis of the fluorogenic substrate Abz-Thr-Ile-Nle-Phe(NO2)-Gln-Arg (Table 1). The initial rates of the enzyme-catalyzed reactions were measured at different inhibitors concentrations, while the reference rates for the not-inhibited reactions were measured each time before the addition of the inhibitors. IC50 was obtained by measuring the relative residual enzyme activity (ratio of the increase of fluorescence velocities before and after the addition of inhibitor) and by fitting the residual activity vs. inhibitor concentration semilog plots to a tetraparametric logistic function.
`O=C(N[C@@H](Cc1ccccc1)[C@H](O)CN(Cc1ccccc1)S(=O)(=O)c1ccc([N+](=O)[O-])cc1)c1ccc2sccc2c1` [Compound 7a, N-((2S,3R)-3-hydroxy-4-(N-benzyl-4-nitrophenylsulfonamido)-1-phenylbutan-2-yl)benzo[b]thiophene-5-carboxamide] gave an IC50 of 4.2 nM.
`COc1ccc(S(=O)(=O)N(Cc2ccccc2)C[C@@H](O)[C@H](Cc2ccccc2)NC(=O)c2ccc3sccc3c2)cc1` [Compound 7b, N-((2S,3R)-3-hydroxy-4-(N-benzyl-4-methoxyphenylsulfonamido)-1-phenylbutan-2-yl)benzo[b]thiophene-5-carboxamide] gave an IC50 of 2.3 nM.
With `COc1ccc(S(=O)(=O)N(Cc2ccccc2)C[C@@H](O)[C@H](Cc2ccccc2)NC(=O)c2ccc3sccc3c2)cc1OC` [Compound 7c, N-((2S,3R)-3-hydroxy-4-(N-benzyl-3,4-dimethoxyphenylsulfonamido)-1-phenylbutan-2-yl)benzo[b]thiophene-5-carboxamide] the IC50 was 6.2 nM.
For `O=C(N[C@@H](Cc1ccccc1)[C@H](O)CN(Cc1ccccc1)S(=O)(=O)c1ccc([N+](=O)[O-])cc1)c1ccc2occc2c1` [Compound 8a, N-((2S,3R)-3-hydroxy-4-(N-benzyl-4-nitrophenylsulfonamido)-1-phenylbutan-2-yl)benzofuran-5-carboxamide], the IC50 was 47 nM.
With `COc1ccc(S(=O)(=O)N(Cc2ccccc2)C[C@@H](O)[C@H](Cc2ccccc2)NC(=O)c2ccc3occc3c2)cc1` [Compound 8b, N-((2S,3R)-3-hydroxy-4-(N-benzyl-4-methoxyphenylsulfonamido)-1-phenylbutan-2-yl)benzofuran-5-carboxamide] the IC50 was 9.6 nM.
In the case of `COc1ccc(S(=O)(=O)N(Cc2ccccc2)C[C@@H](O)[C@H](Cc2ccccc2)NC(=O)c2ccc3occc3c2)cc1OC` [Compound 8c, N-((2S,3R)-3-hydroxy-4-(N-benzyl-3,4-dimethoxyphenylsulfonamido)-1-phenylbutan-2-yl)benzofuran-5-carboxamide], the IC50 is reported as 82 nM.

Same assay, conditions: read-out: residual activity at the 0.5 nM inhibitor
For `O=C(N[C@@H](Cc1ccccc1)[C@H](O)CN(Cc1ccccc1)S(=O)(=O)c1ccc([N+](=O)[O-])cc1)c1ccc2[nH]ccc2c1` [Compound 9a, N-((2S,3R)-3-hydroxy-4-(N-benzyl-4-nitrophenylsulfonamido)-1-phenylbutan-2-yl)1H-indol-5-carboxamide], the remaining activity at 0.0005 µM was 27.7%.
Molecule `COc1ccc(S(=O)(=O)N(Cc2ccccc2)C[C@@H](O)[C@H](Cc2ccccc2)NC(=O)c2ccc3[nH]ccc3c2)cc1` [Compound 9b, N-((2S,3R)-3-hydroxy-4-(N-benzyl-4-methoxyphenylsulfonamido)-1-phenylbutan-2-yl)1H-indol-5-carboxamide] has a remaining activity at 0.0005 µM of 36.3%.
Work on `COc1ccc(S(=O)(=O)N(Cc2ccccc2)C[C@@H](O)[C@H](Cc2ccccc2)NC(=O)c2ccc3[nH]ccc3c2)cc1OC` [Compound 9c, N-((2S,3R)-3-hydroxy-4-(N-benzyl-3,4-dimethoxyphenylsulfonamido)-1-phenylbutan-2-yl)1H-indol-5-carboxamide] yielded a remaining activity at 0.0005 µM of 10.2%.
